{"source": "patent US6989396B2", "about": "“Tropane alkaloid multidrug resistance inhibitors from Erythroxylum pervillei and use of the same” (The Board of Trustees of the University of Illinois, priority 2001, dated 2006)", "key": {"BC1, breast cancer": {"system": "BC1, breast cancer", "test": "In vitro cytotoxicity, human tumor panel: BC1", "assay_type": "cell-based", "details": "Homo sapiens, read-out: ED50 BCI", "procedure": "(§1) Cytotoxicity assay. Compounds 1–9 were evaluated for cytotoxic activity against a panel of human cancer cell lines, including KB-V1 in the presence and absence of VLB, according to an established protocol (68)."}, "KB-V1, drug resistant KB": {"system": "KB-V1, drug resistant KB", "test": "In vitro cytotoxicity, human tumor panel: KB-V1 with or without vinblastine", "assay_type": "cell-based", "procedure": "as §1"}, "[1]": {"system": "SW626, human ovarian adenocarcinoma", "test": "In vitro cytotoxicity, human tumor panel: SW626", "assay_type": "cell-based", "details": "SW626, read-out: ED50 SW626", "procedure": "as §1"}, "[2]": {"system": "SKVLB (ovarian adenocarcinoma, multidrug resistance)", "test": "Multidrug resistance inhibition in SKVLB (pGp +ve)", "assay_type": "cell-based, human"}, "KB-V1 cells [3]": {"system": "KB-V1 cells", "test": "Reversal of MDR, cell survival assay: KB-V1 with or without vinblastine", "assay_type": "cell-based, human", "details": "for IC50: Homo sapiens, KB-V1, 72 hours", "procedure": "One part of a natural product drug discovery program involves monitoring the potential of plant extracts to reverse multiple drug resistance. […] To investigate the potential of plant extracts or compounds to reverse multidrug-resistance, KB-V1 cells are treated with different concentrations of plant extracts or compounds in the presence (1 μg/ml) or absence of vinblastine.\n(§2) Cytotoxic potential. The cytotoxic potential of test substances with KB-3, KB-V1 and KB-8-5 cells was determined as described previously (24). Briefly, various concentrations of test compounds (dissolved in 10 μl of 10% DMSO) were transferred to 96-well plates, and 190 μl aliquots of cell suspensions (5×10^4 cells/ml) were added to each well. The plates then were incubated for 72 hours at 37° C. (100% humidity with a 5% CO2 atmosphere in air), and 100 μl of cold 20% aqueous trichloroacetic acid were added to the growth medium in each well to fix the cells. The cultures were incubated at 4° C. for 30 minutes, washed, air-dried, stained with sulforhodamine B solution, and washed with 1% acetic acid. […] In each case, a zero-day control was performed by adding an equivalent number of cells to several wells and incubating at 37° C. for 30 minutes, and processing as described above. Optical density values obtained with the zero-day control were subtracted, and cell survival, relative to control (solvent-treated) cultures, was calculated. The cytotoxic potential of the compounds with CEM and CEM/VLB100 cells was determined as described by Beck et al. (30). Cells were grown in 24-well plates at a density of 5–6×10^5 cells/ml. At 48 hours, the cell number was determined using a Coulter Counter, with a channelizer to distinguish cells from debris."}, "CEM/VLB100 cells": {"system": "CEM/VLB100 cells", "test": "MDR reversal in drug-resistant human leukemia CEM/VLB100 cells", "assay_type": "cell-based", "details": "for IC50: Homo sapiens", "procedure": "as §2"}, "MDR1 mRNA": {"system": "MDR1 mRNA", "test": "RT-PCR analysis of MDR1 mRNA expression", "assay_type": "cell-based, human", "details": "KB-V1 and CEM/VLB100 cells, 72 hours; pervilleine A up to 34 μM (up to 45 μM), verapamil up to 44 μM", "procedure": "RT-PCR analysis of MDR1 mRNA expression. […] Total RNA was isolated from cultured KB-3, KB-V1, CEM and CEM/VLB100 cells with TRIzol reagent (Life Technologies, Inc.) (33), and quantified by UV absorbance. The reverse transcription of RNA was performed by using the SUPERScript™ Preamplification System (Life Technologies, Inc.) in a final volume of 21 μl containing 5×First Strain Synthesis Buffer, 2.5 mM MgCl2, 0.5 mM each dNTP, […], 2 units of RNAse inhibitor, 200 units of Super-Scrip II reverse transcriptase, 0.5 μg oligo (dT)12-18, 2 μg of total RNA (3 μg for CEM and CEM/VLB100 cells), and DEPC-treated water. After incubation at 42° C. for 50 minutes, the room temperature reaction was terminated by heating to 70° C. for 15 minutes. To the newly synthesized cDNA (2 μl), a PCR mixture containing 1.4 mM MgCl2 (1.2 mM for CEM and CEM/VLB100 cells), 2.5 units of Taq polymerase, 0.2 μmol (0.6 μmol for CEM and CEM/VLB100 cells) of primers based on the MDR1 gene (35) and custom synthesized by Ana-Gen Technology, Inc. (Palo Alto, Calif.) (5′-[…]-3′; 5′-[…]-3′) (35). As an internal control, 0.125 μmol (0.1 μmol for CEM and CEM/VLB100 cells) of primers for GAPDH (5′-[…]-3′; 5′-[…]-3′) (36) were added (final volume to 50 μl). […]"}, "KB-V1 cells [4]": {"system": "KB-V1 cells", "test": "In vivo hollow fiber test: KB-V1", "design": "species or system NCr nu/nu mice"}, "[5]": {"details": "vinblastine 1 μg/ml, listed as pervilleine A"}, "[6]": {"details": "pervilleine A 5 μM, verapamil 10 μM"}, "[7]": {"details": "summation of single-agent inhibitions"}}, "note": "“Also recorded” adds a separate entry of the source. Like-named read-outs stand apart in the source and are kept apart here. Marks after values point to notes of the source that are not given here.", "data": [{"compound": "COc1cc(C=CC(=O)O[C@H]2[C@@H](O)[C@@H]3C[C@H](OC(=O)c4cc(OC)c(OC)c(OC)c4)C[C@H]2N3C)cc(OC)c1OC", "note": "[Compound 3, 3α-(3,4,5-trimethoxybenzoyloxy)-6β-(3,4,5-trimethoxycinnamoyloxy)-7β-hydroxytropane]", "values": [{"measurement": "IC50", "setting": "BC1, breast cancer", "value": "> 20", "unit": "µg/mL"}, {"measurement": "IC50", "setting": "KB-V1, drug resistant KB; Homo sapiens, KB-V1, drug-resistant KB assessed in the absence of vinblastine, read-out: ED50 KB-V1−", "value": "> 20", "unit": "µg/mL"}, {"measurement": "ED50 KB-V1+", "setting": "KB-V1, drug resistant KB; drug resistant KB assessed in presence of vinblastine (1 μg/mL)", "value": 0.3, "unit": "µg/mL"}, {"measurement": "IC50", "setting": "[1]", "value": "> 20", "unit": "µg/mL"}, {"measurement": "IC50", "setting": "[2]; Homo sapiens, read-out: IC50 BSKVLB (pGp + ve)", "value": "> 10000", "unit": "nM"}, {"measurement": "IC50", "setting": "[2]; read-out: IC50 SKVLB (pGp + ve), addition of adriamycin, Addition of 1 μm adriamycin", "value": 650, "unit": "nM"}, {"measurement": "IC50", "setting": "KB-V1 cells [3]; absence of vinblastine, read-out: IC50 KB-V1 (−)", "value": "> 34000", "unit": "nM"}, {"measurement": "IC50", "setting": "KB-V1 cells [3]; presence of vinblastine (1 μg/ml), read-out: IC50 KB-V1 (+)", "value": 360, "unit": "nM"}, {"measurement": "Ratio of IC50 values KB-3/[KB-V1 (+)]", "setting": "KB-V1 cells [3]; vinblastine 1 μg/ml, listed as Pervilleine A", "value": "66.6^d"}, {"measurement": "Ratio of IC50 values KB-3/[KB-V1 (+)]", "setting": "KB-V1 cells [3]; [5]", "value": 66.6}, {"measurement": "Ratio of IC50 values [KB-V1 (−)]/[KB-V1 (+)]", "setting": "KB-V1 cells [3]; [5]", "value": "> 95"}, {"measurement": "IC50", "setting": "CEM/VLB100 cells; CEM/VLB100, 48 h, read-out: IC50 Modulator only", "value": "> 15000", "unit": "nM"}, {"measurement": "IC50", "setting": "CEM/VLB100 cells; CEM/VLB100, read-out: IC50 (Modulator + Daunorubicin)", "value": 65, "unit": "nM"}, {"measurement": "IC50", "setting": "CEM/VLB100 cells; CEM/VLB100, read-out: IC50 (Modulator + Vinblastine)", "value": 20, "unit": "nM"}, {"measurement": "Ratio of IC50 values Daunorubicin/(Modulator + Daunorubicin)", "setting": "CEM/VLB100 cells; [6]", "value": "15^c"}, {"measurement": "Ratio of IC50 values Modulator/(Modulator + Daunorubicin)", "setting": "CEM/VLB100 cells; [6]", "value": ">231^c"}, {"measurement": "Ratio of IC50 values Modulator/(Modulator + Vinblastine)", "setting": "CEM/VLB100 cells; [6]", "value": ">750^c"}, {"measurement": "Ratio of IC50 values Vinblastine/(Modulator + Vinblastine)", "setting": "CEM/VLB100 cells; [6]", "value": "250^c"}, {"measurement": "effect on MDR1 mRNA (transcription of MDR1)", "setting": "MDR1 mRNA", "value": "no significant effect; also recorded: did not significantly alter; also recorded: did not significantly affect"}, {"measurement": "inhibition of cell growth when used in combination with vinblastine", "setting": "KB-V1 cells [4]; KB-V1 or KB-8-5 cells in hollow fibers implanted into NCr nu/nu mice", "value": "up to 75%"}, {"measurement": "Calculated inhibition (vinblastine + reversing agent as single agents), KB-V1, i.p. site", "setting": "KB-V1 cells [4]; [7]", "value": 2, "unit": "%"}, {"measurement": "Calculated inhibition (vinblastine + reversing agent as single agents), KB-V1, s.c. site", "setting": "KB-V1 cells [4]; [7]", "value": 3.3, "unit": "%"}, {"measurement": "Observed inhibition from coadministration with vinblastine, KB-V1, s.c. site", "setting": "KB-V1 cells [4]; vinblastine 250 μg/kg + reversing agent 0.136 mmol/kg", "value": "14.6 (P = 0.188) %"}, {"measurement": "Observed inhibition from coadministration with vinblastine, KB-V1, i.p. site", "setting": "KB-V1 cells [4]; vinblastine 250 μg/kg + reversing agent 0.136 mmol/kg, i.p. injection once daily days 3–6, listed as pervilleine A", "value": "68.6 (P < 0.0001) %"}, {"measurement": "Growth inhibition, single agent, KB-V1, s.c. site", "setting": "KB-V1 cells [4]; vinblastine 250 μg/kg, reversing agents 0.136 mmol/kg, i.p. injection once daily days 3–6", "value": 3.3, "unit": "%"}, {"measurement": "Growth inhibition, single agent, KB-V1, i.p. site", "setting": "KB-V1 cells [4]; vinblastine 250 μg/kg, reversing agents 0.136 mmol/kg, i.p. injection once daily days 3–6, fibers retrieved day 7, MTT", "value": 1, "unit": "%"}]}]}
